Test results from patent EP4806421A2, “PHARMACEUTICAL COMPOSITIONS OF NANOCRYSTALLIZED XANTHATIN AND USE THEREOF AS AN ANTI-TUMOR AGENT” (Centro de Investigación y Desarrollo de Medicamentos CIDEM, priority 2023, dated 2025).

Tests used:
[1] = test system: HT-29 colorectal adenocarcinoma; experiment: MTT reduction assay, cell viability (HT-29); format: cell-based, human; conditions: HT-29 cells, 10 and 20 µM, 24 h, isolated xanthatin dissolved in DMSO, nanocrystals added directly to the medium
Procedure: (§1) Cell growth inhibition of nanocrystallized xanthatin assessed using the MTT assay.
(§2) The viability of the cultured cells was assessed using the MTT reduction assay. The assay was performed using the method described by Mosmann (1983). HT-29 and HeLa cells were seeded in 96-well plates at 10^4 cells/ml and 5x10^3 cells/ml respectively. The cells were cultured in Dulbecco's modified Eagle's medium (DMEM) supplemented with 10% FBS, 1% glutamine, triple antibiotic (3A), and 25 mM glucose, and maintained at 37°C in a 5% CO2 incubator until 80-90% confluence. After 24h of incubation, to ensure cell adhesion, the medium was removed and different concentrations (10 and 20 µM) of either commercial xanthatin, isolated xanthatin, and xanthatin nanocrystals, or as a negative control medium supplemented with 1% DMSO, were added. Prior to treatment, the commercial and isolated xanthatin samples were dissolved in DMSO, unlike the nanocrystallized xanthatin that was directly added to the cell culture medium. The prepared plates were incubated for 24 h, and 50 µL MTT (5 mg/ml) per well was added to a final concentration of 1 mg/ml. […] Relative cell viability was determined by measuring the absorbance at 540 nm on an ELISA plate reader (Tecan Sunrise MR20-301, TECAN Austria). Absorbance is directly proportional to the level of cell proliferation or viability. […]

[2] = test system: HeLa cervical carcinoma tumor lines; experiment: MTT reduction assay, cell viability (HeLa); format: cell-based, human; conditions: HeLa cells, 10 and 20 µM, 24 h, isolated xanthatin dissolved in DMSO, nanocrystals added directly to the medium
Procedure: as §1, §2

[3] = test system: HT-29 human colorectal adenocarcinoma tumor line; experiment: Cell cycle progression by flow cytometry (PI/RNase staining); format: cell-based; conditions: HT-29 cells, 10 and 20 µM, 48 h, compared with untreated control and docetaxel 2 µM positive control
Procedure: Assay to evaluate the in vitro antiproliferative activity of nanocrystallized xanthatin by flow cytometry.
The antiproliferative activity through cell cycling arrest was evaluated in HT-29 cells. Cells were cultured in 6-well plates (2×10^5 and 1×10^5 cells/ml, respectively) until 90% confluence was reached. Three xanthatin samples were evaluated: commercial, laboratory-isolated, and nanocrystallized xanthatin at concentrations of 10 and 20 µM. Prior to treatment, both commercial and isolated xanthatin were dissolved in DMSO, unlike nanocrystallized xanthatin, which was added directly to the cell culture medium. Medium supplemented with 1% FBS was used as the control. Docetaxel 2 µM was used as a positive control for cell cycle arrest in G2/M. The treatments were added to the medium supplemented with 1% FBS on the day after seeding the cells on the plates. The cells were incubated for 48 h upon the treatments, harvested, fixed in 100% ethanol, and stored at -20°C. Cell cycle distribution was next assessed using flow cytometry. On the day of the assay, samples were incubated with a PI/Rnase mixture at room temperature and in the dark for 20 min prior to analysis.

[4] = test system: murine U14 cervical carcinoma cells; experiment: In vivo antitumor effect of in situ gelation containing xanthatin nanocrystals, tumor implant near the cervix; parameters: species or system female BALB/c mice; conditions: hydrogel intravaginal 0.850 mg nanocrystallized xanthatin per mouse daily for 5 days, carboplatin i.v. 0.675 mg per mouse for 3 days
Procedure: Evaluation of the in vivo antitumor effect of in situ gelation containing xanthatin nanocrystals was performed using murine U14 cervical carcinoma cells inoculated into the cervix of female BALB/c mice with an average weights of 22-24 g. Tumor implantation was performed by inoculating the submucosa near the cervix of each animal with 25 µL of cell suspension in PBS, with a total of 4×10^5 cells/mouse. Four randomly distributed groups of 6 animals per group were formed. The treatment schedule was carried out for 5 days with a daily intravaginal infusion of the thermosensitive hydrogel containing the xanthatin nanocrystals (8.5 µL, 0.850 mg of nanocrystallized xanthatin per mouse) and placebo, and for 3 days with a daily intravaginal infusion of […] Tumor weight and tumor inhibition rates were evaluated. Tumor inhibition rate was calculated using the following formula: TIR = (Aw −Ax)/([…]) × 100 [formula]
Where: • TIR means tumor inhibition rate in %. • AW means the average weight of tumors in the control group. • Ax means the average weight of the tumors of the treated group.

C=C1C(=O)O[C@H]2C[C@H](C)C(/C=C/C(C)=O)=CC[C@H]12 [laboratory isolated xanthatin, xanthatin]
viability inhibition [1]: significantly higher than that of commercial xanthatin | viability inhibition [2]: significantly higher than that of commercial xanthatin | cell cycle arrest in the G2/M phase ([3]; listed as isolated xanthatin): induced cell cycle arrest in the G2/M phase

C=C1C(=O)O[C@H]2C[C@H](C)C(/C=C/C(C)=O)=CC[C@H]12 [commercial xanthatin, xanthatin]
cell cycle arrest in the G2/M phase [3]: no statistically significant differences

N.N.O=C([O-])C1(C(=O)[O-])CCC1.[Pt+2] [injectable carboplatin, carboplatin]
tumor inhibition rate ([4]; calculated from average tumor weights): 54.4% | tumor weight ([4]; with respect to the placebo and control groups): significant decrease
